Experimental findings from patent publication US20110318272A1, “PESTICIDAL MIXTURES GIVING S[…]” (priority 2010, published 2011) are described below.

Entries after “also recorded” stand apart in the source; their conditions may differ. Where two headings read alike, the source gives them in different places.

One data set relates to Tetranychus urticae. As to the kind of experiment: Leaf disc track-sprayer bioassay against red spider mite. It counts as in vivo. Conditions: for Concentration effect ca LD25 3DAA / Concentration effect ca LD50 3DAA: T. urticae; for activity against T. urticae when applied alone: range-finding assay.
For another data set, the system named is Myzus persicae. To be noted: for Concentration effect ca LD25 3DAA: M. persicae; for pesticidal activity against M. persicae, product alone in mixture study: alone at rate taken as ca. LD25 (BUGOIL 10 mL/L, imidacloprid 0.1, indoxacarb 100, spinosad 1 g (a.i.)/ha); for aphicidal activity against M. persicae when applied alone: range-finding assay. On the procedure:
Test arenas consisted of excised leaf discs of the host plant infested with the target organism.
Test arenas consisted of excised leaf discs of the host plant Brassica rapa chinensis infested with the target organism, Myzus persicae. A track sprayer was used to spray the test solutions at an application volume of 200 L/ha. Assessment of mortality (survival), any other sub lethal effects and phytotoxicity were carried out at 24 hours and 72 hours post application (3DAA).

The subject of a further data set is Spodoptera litura. As to the kind of experiment: Field study, cutworm on eggplant. The data set is classed as in vivo. Conditions: 7 DAA. As to the method:
(§1) For the field experiments described in Examples 14-16, the numbers of target organisms on host plants were assessed before treatment and after treatment.
(§2) Field studies as described below were carried out to determine the efficacy of BUGOIL®, lambda cyhalothrin, imidacloprid, and abamectin, alone and in mixtures with BUGOIL®, for control of the whitefly Bemisia tabaci, the leafhopper Empoasca biggutula, the aphid Aphis gosspyii, the shoot/fruit borer Leucinodes orbonalis and the cutworm Spodoptera litura on the eggplant cultivar “Casino” (Solanum melongena cv Casino). In the following studies, the dose (N) is the label dose for each product, expressed in concentration (grams active ingredient) per liter of spray mixture (a.i.)/l).
Lambda cyhalothrin is formulated as Karate® (KARATE® with Zeon Technology, Syngenta Phillipines, Inc., Batch No. JAK8,18179, Production Date Nov. 11, 2008, Phillipines Department of Agriculture, Fertilizer and Pesticides Authority (FPA) Reg. No. 011-204-0396), where the dose prior to dilution=N=label dose=0.8 g (a.i.)/l (rated adapted to lepidopterian and leafhopper pests).
(§3) Imidacloprid is formulated as CLIMAX® (CLIMAX® 200 SL, Bayer CropScience, Inc., Batch No. 81001025, Production Date Feb. 22, 2005, FPA Reg. No. 284-240-0761 where the dose prior to dilution=N=label dose=0.15 g (a.i.)/l.
(§4) Abamectin is formulated as AGRI-MEK® (AGRI-MEK® 1.8 EC, Syngenta Phillipines, Inc., FPA Reg. No. 011-234-0791), where the dose prior to dilution=N=label dose=0.018 g (a.i.)/l.

The next data set relates to Empoasca biggutula. As to the kind of experiment: Field study, leafhopper on eggplant. It counts as in vivo. As to the method:
as §1, §2, §3, §4

For data set [1], the system named is sucking insect pests (whitefly, leafhoppers and aphids). As to the kind of experiment: Field study, sucking insect pests on eggplant. The data set is classed as in vivo. Conditions: abamectin as AGRI-MEK 1.8 EC, mixtures at reduced rates, sucking insect and lepidopteran pests. On the procedure:
as §1, §2

In a further data set the test system is Trialeurodes sp. Nature of the data set: Field study, adult whitefly on zucchini. The data set is classed as in vivo. Conditions: FIG. 12, imidacloprid alone at N/2 dilution. As to the method: as §1
Field studies as described below were carried out to determine the efficacy of BUGOIL® alone, lambda cyhalothrin alone, imidacloprid alone, abamectin alone, and mixtures of BUGOIL® with lambda cyhalothrin, imidacloprid, or abamectin, for control of adult whiteflies of different whitefly species, on zucchini and cucumber. In the following studies, the dose (N) is the label dose for each product, expressed in concentration (grams active ingredient) per liter of spray mixture (a.i.)/1).

The next data set deals with Bemisia tabaci. Nature of the data set: Field study, adult whitefly on eggplant. The data set is classed as in vivo. Conditions: over a 14 day test period, product alone. On the procedure: as §1, §2, §3
[2] abbreviates: 72 hours, *not necessarily at the LD25 level, little or no response to the dose range.
Where [3] appears, read: 72 hours, *not necessarily at the LD50 level, little or no response to the dose range.
[4] abbreviates: alone at recommended application rate (N).

Method for Tetranychus urticae: Test arenas consisted of excised leaf discs of the host plant Phaseolus vulgaris infested with the target organism, Tetranychus urticae. A track sprayer was used to spray the test solutions at an application volume of 200 L/ha. Assessment of mortality (survival), any other sub lethal effects and phytotoxicity were carried out at 24 hours and 72 hours post application (3DAA).

As for `COC(=O)N(C(=O)N1CO[C@@]2(C(=O)OC)Cc3cc(Cl)ccc3C2=N1)c1ccc(OC(F)(F)F)cc1` [indoxacarb, methyl (4aS)-7-chloro-2,5-dihydro-2-[[(methoxycarbonyl)[4-(trifluoromethoxy)phenyl]amino]carbonyl] indeno[1,2-e][1,3,4]oxadiazine-4a(3H)-carboxylate], in the data set with Tetranychus urticae (setting [2]), the “Concentration effect ca LD25 3DAA” value is on record as around 100 g a.i./ha. Moreover, in the data set on Tetranychus urticae (setting [3]), the “Concentration effect ca LD50 3DAA” value is around 400 g a.i./ha. For the same compound, the “activity against T. urticae when applied alone” value in the data set with Tetranychus urticae (72 hours) is “minimal activity; also recorded: not shown to be active”. Also, in the data set with Myzus persicae (setting [2]), the “Concentration effect ca LD25 3DAA” value is around 100 g a.i./ha. For the same compound, in the data set on Myzus persicae (72 hours), the “pesticidal activity against M. persicae, product alone in mixture study” value is “did not have measurable pesticidal activity” and the “aphicidal activity against M. persicae when applied alone” value (shortened to “aphicidal activity against M. persicae”) is recorded as “little aphicidal activity”.

Spinosad: the “Observed mean % mortality of T urticae” value with Tetranychus urticae (10 g spinosad/L alone) was 8%. For the same compound, in the data set with Tetranychus urticae (72 hours after application), the “Concentration effect ca LD25 3DAA” value is reported as around 10 g a.i./ha and the “Concentration effect ca LD50 3DAA” value was around 50 g a.i./ha. Also, in the data set with Tetranychus urticae (72 hours), the “activity against T. urticae when applied alone” value is “a dose response to spinosad was observed”. Besides, the “Concentration effect ca LD25 3DAA” value in the data set on Myzus persicae (setting [2]) is reported as around 10 g a.i./ha. In the data set with Myzus persicae (72 hours), the “pesticidal activity against M. persicae, product alone in mixture study” value was “no measurable pesticidal activity” and the “aphicidal activity against M. persicae” value is on record as “variable aphicidal activity”.

Turning to `CC1(C)[C@H](C(=O)O[C@H](C#N)c2cccc(Oc3ccccc3)c2)[C@@H]1/C=C(\Cl)C(F)(F)F` (racemic) [lambda-cyhalothrin, Lambda-cyhalothrin], the “pesticidal activity against T. urticae in mixture study” value in the data set on Tetranychus urticae (FIG. 4B, BUGOIL at ca. LD25 (5 mL/L), lambda-cyhalothrin at ca. LD25 (0.05 g (a.i.)/ha), mixtures Treatments 3, 4, 5, 7, 8, 72 hours) is given as “showed pesticidal activity”. Further, in the data set with Tetranychus urticae (72 hours after application), the “Concentration effect ca LD25 3DAA” value is on record as around 0.05 g a.i./ha and the “Concentration effect ca LD50 3DAA” value is recorded as around 0.1 g a.i./ha. Moreover, in the data set with Tetranychus urticae (72 hours), the “activity against T. urticae when applied alone” value is on record as “active”. The “Concentration effect ca LD25 3DAA” value with Myzus persicae (72 hours after application) was around 0.01 g a.i./ha. In addition, the “aphicidal activity against M. persicae” value in the data set on Myzus persicae (72 hours) is “high aphicidal activity”. The “control of cutworm, S litura” value with Spodoptera litura (setting [4]) is on record as “around 60%”.

On to Abamectin, for which, in the data set with Tetranychus urticae (0.25 g abamectin/L alone), the “Observed mean % mortality of T urticae” value was 10%. Also, the “Concentration effect ca LD25 3DAA” value was around 0.025 g a.i./ha in the data set on Tetranychus urticae (72 hours after application) and around 5 g a.i./ha in the data set on Myzus persicae (72 hours after application). Moreover, the “Concentration effect ca LD50 3DAA” value in the data set with Tetranychus urticae (72 hours after application) is reported as around 0.040 g a.i./ha; in the data set on Tetranychus urticae (72 hours after application, listed as Abamectin (Vertan)), around 0.04 g a.i./ha. Also, the “activity against T. urticae when applied alone” value with Tetranychus urticae (72 hours) is “active”. Moreover, the mortality rate in the data set with Myzus persicae (applied as VERTAN at LD25 (5 g (a.i.)/ha) or above, 72 hours) is reported as around 100%. The “aphicidal activity against M. persicae” value with Myzus persicae (72 hours) was “active”. Also, the “control of leafhopper E. biggutula” value with Empoasca biggutula (3 days after application 1, BUGOIL alone at 5 mL/L) was 78%; in the data set on Empoasca biggutula (3 days after application 2, BUGOIL alone at 5 mL/L) it was 66%; in the data set with Empoasca biggutula (3 days after application 3, BUGOIL alone at 5 mL/L), 49%. Moreover, in the data set on Empoasca biggutula (single application, 3 days after application), the “control of leafhopper E biggutula” value is “around 80%”. Also, in the data set with Spodoptera litura (abamectin alone), the “control of cutworm, S litura” value was found to be 70%. Also, in data set [1], the “control of eggplant pests” value was “good effects”.

On to `O=[N+]([O-])NC1=NCCN1Cc1ccc(Cl)nc1` [imidacloprid, (2E)-1-[(6-chloro-3-pyridinyl)methyl]-N-nitro-2-imidazolidinimine], for which the “Concentration effect ca LD25 3DAA” value in the data set with Tetranychus urticae (setting [2]) was around 100 g a.i./ha; in the data set with Myzus persicae (72 hours after application) it was around 0.1 g a.i./ha. Further, the “Concentration effect ca LD50 3DAA” value in the data set on Tetranychus urticae (setting [3]) is around 400 g a.i./ha. In addition, the “activity against T. urticae when applied alone” value in the data set with Tetranychus urticae (72 hours) is “minimal activity”. Also, in the data set on Myzus persicae (range finder assay, concentrations of 1 g a.i./ha and above), the mortality rates result is listed as “greater than 90%”. In addition, the “aphicidal activity against M. persicae” value with Myzus persicae (72 hours) is “active”. In addition, the “control of adult whiteflies” value with Trialeurodes sp. was 30-40%. Also, the control of leafhoppers in the data set with Empoasca biggutula (1 HAA, imidacloprid alone at half the normal rate (½ N)) stood at 37%. Also, the “control of adult whitefly, B. tabaci” value in the data set with Bemisia tabaci is at most 50%. In the data set on Spodoptera litura (setting [4]), the “control of cutworm, S litura” value was “around 60%”.
